This is an account of results in patent US20240174675A1, “SMALL MOLECULE REGULATORS OF ALVEOLAR TYPE 2 CELL PROLIFERATION FOR THE TREATMENT OF PULMONARY DISEASES” (THE SCRIPPS RESEARCH INSTITUTE, priority 2021, published 2024).

Data set [1] is described as follows: Pharmacokinetic profiling, plasma and lung levels after intratracheal or inhalation delivery in the mouse. It is filed as in vivo. To be noted: mouse; IT dosing at 2 mg/kg (FIG. 2); after 48 h.
For a further data set, the target named is T1, Human DPP4 (Homo sapiens, UniProt P27487).
T1 construct: purchased Sigma-Aldrich MAK088
T1 sequence (P27487 whole entry): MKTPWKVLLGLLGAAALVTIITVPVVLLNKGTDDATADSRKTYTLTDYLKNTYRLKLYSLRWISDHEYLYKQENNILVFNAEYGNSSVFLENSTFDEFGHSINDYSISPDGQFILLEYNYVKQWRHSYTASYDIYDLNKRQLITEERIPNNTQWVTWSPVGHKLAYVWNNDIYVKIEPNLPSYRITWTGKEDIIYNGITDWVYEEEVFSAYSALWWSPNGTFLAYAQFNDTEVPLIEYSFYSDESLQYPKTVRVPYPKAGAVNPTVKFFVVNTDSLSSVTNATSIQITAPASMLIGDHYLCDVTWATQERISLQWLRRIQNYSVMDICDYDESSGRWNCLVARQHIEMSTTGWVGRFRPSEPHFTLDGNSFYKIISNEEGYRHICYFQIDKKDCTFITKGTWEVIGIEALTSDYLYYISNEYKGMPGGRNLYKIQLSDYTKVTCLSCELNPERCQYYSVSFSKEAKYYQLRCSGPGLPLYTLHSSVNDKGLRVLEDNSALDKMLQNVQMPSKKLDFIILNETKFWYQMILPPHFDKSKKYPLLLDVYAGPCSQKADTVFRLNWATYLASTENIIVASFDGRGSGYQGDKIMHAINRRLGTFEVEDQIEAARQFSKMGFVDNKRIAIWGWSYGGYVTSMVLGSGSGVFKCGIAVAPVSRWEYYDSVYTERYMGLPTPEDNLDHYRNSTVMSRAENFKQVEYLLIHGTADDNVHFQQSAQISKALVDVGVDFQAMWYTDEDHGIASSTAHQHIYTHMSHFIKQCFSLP
The data set can be described thus: DPP4 activity assay (DPP4 Activity Assay Kit, fluorescent substrate). It is filed as biochemical. To be noted: Human DPP4; read-out: DPP4 inhibition IC50 [nM]). The method, then:
DPP4 activity assay. Human DPP4 activity assay data were obtained using a DPP4 Activity Assay Kit (Sigma-Aldrich, MAK088) according to the manufacturer's instructions. Briefly, 10 μL of DPP4 Assay Buffer were transferred per well in low volume 384-well plates before transferring 10 μL of test compound dissolved in DPP4 assay buffer. To each well was added 5 μL of Master Reaction Mix containing a fluorescent substrate that becomes fluorescent upon cleavage by the enzyme. Fluorescence intensity measurements were recorded at 1-minute time intervals over the course of 20 minutes using an Envision Multimode Plate Reader (PerkinElmer).

Consider `COC(=O)c1nc(C(F)(F)F)n2c1CN(C(=O)C[C@H](N)Cc1cc(F)c(F)cc1F)CC2` [retagliptin, reference compound], for which, in data set [1], the “level in the lung after 48 h” value is “very low”.

For the compound `CCCCCCCS(=O)C12CC3C[C@@H](CC(NCC(=O)N4CCC[C@H]4C#N)(C3)C1)C2` (stereo in doubt) [Compound 3, (2S)-1-(((1S,3R,5S)-3-(heptylsulfinyl)adamantan-1-yl)glycyl)pyrrolidine-2-carbonitrile], the IC50 at Human DPP4 was 9 nM.

Turning to `N#C[C@@H]1CCCN1C(=O)CN[C@@]12CC3C[C@@H](C1)C[C@](OCCOCCn1cc(CNC[C@H](O)[C@@H](O)[C@H](O)[C@H](O)CO)nn1)(C3)C2` [Compound 14, (2S)-1-(((1S,3R,5S)-3-(2-(2-(4-((((2S,3R,4R,5R)-2,3,4,5,6-pentahydroxyhexyl)amino)methyl)-1H-1,2,3-triazol-1-yl)ethoxy)ethoxy)adamantan-1-yl)glycyl)pyrrolidine-2-carbonitrile], the IC50 at Human DPP4 was determined as 8.2 nM.

Turning to `N[C@@H](CC(=O)N1CCn2c(C(F)(F)F)nc(C(=O)OCCN3CCOCC3)c2C1)Cc1cc(F)c(F)cc1F` [Compound 49, (R)-4-(1-((2-morpholinoethoxy)carbonyl)-3-(trifluoromethyl)-5,6-dihydroimidazo[1,5-a]pyrazin-7(8H)-yl)-4-oxo-1-(2,4,5-trifluorophenyl)butan-2-aminium (2R,3S)-3-carboxy-2,3-dihydroxypropanoate], on Human DPP4, the IC50 was determined as 0.82 nM.

In the case of `CCN(Cc1cn(CCOCCOCCOC(=O)c2nc(C(F)(F)F)n3c2CN(C(=O)C[C@H](N)Cc2cc(F)c(F)cc2F)CC3)nn1)C[C@H](O)[C@@H](O)[C@H](O)[C@H](O)CO` [Compound 45, 2-(2-(2-(4-((ethyl((2S,3R,4R,5R)-2,3,4,5,6-pentahydroxyhexyl)amino)methyl)-1H-1,2,3-triazol-1-yl)ethoxy)ethoxy)ethyl 7-((R)-3-amino-4-(2,4,5-trifluorophenyl)butanoyl)-3-(trifluoromethyl)-5,6,7,8-tetrahydroimidazo[1,5-a]pyrazine-1-carboxylate], the IC50 on Human DPP4 came out at 0.55 nM.

In the case of `CCCCCCCC(=O)OCOC12CC3CC(CC(NCC(=O)N4CCC[C@H]4C#N)(C3)C1)C2` [Compound 7, ((3-((2-((S)-2-cyanopyrrolidin-1-yl)-2-oxoethyl)amino)adamantan-1-yl)oxy)methyl Octanoate], the IC50 on Human DPP4 is 32 nM.

For `CC#CCn1c(N2CCC[C@@H](N)C2)nc2c1c(=O)n(Cc1nc(NCCCC)ccc1C(=O)O)c(=O)n2C` [Compound 33], the IC50 at Human DPP4 was 11.4 nM.

Broadly, the IC50 is the concentration that gives 50% inhibition.
